Results taken from patent US10081609B2, “Compounds for inducing proliferation and differentiation of cells, and methods of use thereof” (The Broad Institute, Inc., priority 2013, dated 2018).

What was measured:
[1] = test system: lfabp:GFP zebrafish embryos; assay: Survival of zebrafish embryos after a fatal dose of APAP; type: in vivo; conditions: 10 mM APAP concurrently with compound, from 72 hrs post fertilization
Method: The effect of FH1 on zebrafish survival following APAP-induced toxicity was examined. lfabp:GFP zebrafish embryos were allowed to develop normally for 72 hrs post fertilization and then exposed to a fatal dose of 10 mM APAP concurrently with FH1 (FIG. 9A).

iHeps [2] = assay: Differentiation of human iPS-derived hepatocytes (iHeps): morphology and immunofluorescent staining; type: cell-based
Method: (§1) The ability of compounds of the invention to affect the differentiation and maturation of iHeps was tested. Undifferentiated iPS cells were cultured on Matrigel, supported by primary mouse embryonic fibroblasts. Once confluent, iPS cells were transitioned to differentiation media, with sequential addition of growth factors (Activin A, BMP-4, bFGF, HGF, and OSM) to guide differentiation, first into endoderm, then into hepatic progenitor cells and finally into iHeps. Compound treatment started on day 21 post initiation of differentiation and acted over a period of 9 days. FH1 and FPH2 were used to treat iHeps. FH1 doubled albumin secretion during primary screening (FIG. 4A left) in a dose-responsive manner (FIG. 4A right).
To examine the effects of FH1 and FPH2 at the protein level, AFP, albumin and CYP3A4 levels weew visualized via immunofluorescent staining. […] This is in agreement with primary screening results as well as earlier morphological findings. Untreated cultures had islands that double stain for albumin and the fetal marker AFP, with very little presence of the mature marker CYP3A4.

[3] = test system: transgenic lfabp:GFP zebrafish; assay: Liver development in transgenic lfabp:GFP zebrafish embryos; type: in vivo; conditions: exposure 24 to 72 hrs post fertilization
Excerpt: The effects of FH1 and PH1 on liver development were examined in transgenic lfabp:GFP zebrafish, in which GFP expression is restricted to the liver. Zebrafish embryos were allowed to develop normally for 24 hrs post fertilization and then exposed to either FH1 or PH1 until 72 hrs post fertilization (FIG. 8A). Livers were visualized by whole-mount fluorescence imaging (FIG. 8B) and lfabp in situ hybridization (FIG. 8C).

iHeps [4] = assay: CYP450 activities of treated iHeps through isoenzyme-specific probes; type: cell-based, human
Method: Culture media were collected and frozen at −20° C. until analysis. Albumin content was measured through sandwich ELISA assays (MP Biomedicals, Fitzgerald, Bethyl Laboratories) using horseradish peroxidase detection and 3,3′,5,5′-tetramethylbenzidine (TMB, Fitzgerald Industries) as a substrate. Urea concentration was determined colorimetrically using diacetylmonoxime with acid and heat (Stanbio Labs). To quantify CYP450 activity, at 48 hours after small molecule exposure, cultures were incubated with substrates (coumarin from Sigma for CYP2A6, luciferin-IPA from Promega for CYP3A4) for 4 hours at 37° C. Incubation medium was collected and metabolite concentration quantified via luminescence, or fluorescence after hydrolization of potential metabolite conjugates by β-glucuronidase/arylsulfatase (Roche, Ind.).
The ability of compounds of the invention to affect the differentiation and maturation of iHeps was tested. Undifferentiated iPS cells were cultured on Matrigel, supported by primary mouse embryonic fibroblasts. […]
To confirm the staining results, secreted levels of albumin and AFP via ELISA, and CYP450 activities through isoenzyme-specific probes that are either fluorescent or luminescent were measured. […]

[5] = test system: human primary hepatocytes; assay: High-throughput liver platform, primary screening: secreted albumin by competitive ELISA; type: cell-based
Excerpt: In order to evaluate the phenotype of treated cells, a secondary readout was included to quantify hepatocyte functions via competitive ELISA. This biochemical assay measured the level of secreted albumin as a marker for protein synthesis functions of the cultured hepatocytes (FIG. 1A bottom).
FIG. 1B top summarizes the workflow of the screen. Primary screening was done on human primary hepatocytes, preconditioned for seven days by non-parenchymal cells in the screening platform. Upon stabilization in vitro, cultures were treated with the chemical library for 48 hours. All compounds were tested in duplicates, at a single concentration of 15 μM. This single concentration was selected via a pilot screen of ˜2,000 small molecules. All 12,480 small molecules were initially tested on a single donor of cryopreserved hepatocytes (donor a) in order to eliminate noise from donor-to-donor variability. Following compound treatment, media supernatants were collected for functional analyses via ELISA and cultures were fixed in 4% paraformaldehyde for proliferation analyses via imaging.

[6] = test system: iPS-derived endothelial cells; assay: Differentiation of iPS-derived endothelial cells (nitric oxide); type: cell-based
Method: Cells were assayed for nitric oxide (NO), a mature marker for endothelial cells. CB=FPH2, M=FH1, E=PH1, while Null and DMSO are control runs with no additive and vehicle only, respectively.

[7] = test system: lfabp:GFP zebrafish embryos; assay: Therapeutic window after a non-fatal dose of APAP in zebrafish embryos (liver size); type: in vivo; conditions: 5 mM APAP for 24 hrs before 24 hour treatment
Method: The current clinical treatment for APAP toxicity is the administration of NAC, which has a limited window of efficacy. To examine the therapeutic window of FH1 and PH1 efficacy, lfabp:GFP zebrafish embryos were allowed to develop normally for 48 hrs post fertilization, and then exposed to a non-fatal dose of 5 mM APAP for 24 hrs before initiation of treatment with FH1 or PH1 for an additional 24 hour period (FIG. 10A).

iHeps [8] = assay: Gene expression profiles of treated iHeps (Luminex); type: cell-based, human
Method: Cells were lysed using RLT buffer (Qiagen) or Trizol (Invitrogen) and purified using the Mini-RNeasy kit (Qiagen). Gene expression was determined using Luminex analysis, as previously described. Briefly, total RNA was immobilized on a Qiagen turbo capture 384-well plate, and reverse-transcribed using oligodT priming A biotinylated FlexMap tag sequence unique to each gene of interest and a phosphorylated downstream probe were then added to resulting cDNAs to generate biotinylated FlexMap-tagged amplicons. Universal PCR was then performed for 35 cycles using a biotinylated T7 forward primer and T3 reverse primer in buffer with dNTPs and Taq polymerase. FlexMap microsphere beads conjugated with antitag oligonucleotides were then added and allowed to hybridize. Amplicons were captured by streptavidin-phyoerythrin, and 100 events per bead were analyzed for internal bead color and phyoerythrin reporter fluorescence on a Luminex FlexMap 3D analyzer. Data for replicate loadings, expressed in mean fluorescent intensity of at least 100 beads per sample, were scaled to the human transferrin gene and row-normalized for heat map representation using GeneE open software (Broad Institute).
as §1
Euclidian clustering analyses groups untreated cells with fetal hepatocytes and treated cells with mature hepatocytes (FIG. 4C left). Of particular interest are ABC transporters, CYP3A4 and GSTP1 expression levels. ABC transporters are known to mature after birth. ABCB11, also known as bile-salt export pump (BSEP), increased ˜3 fold and ˜4 fold in expression levels with FPH2 and FH1 treatment, respectively, compared to untreated iHeps. In contrast, GSTP1 expression, whose levels decrease with maturity, remained low upon FPH2 and FH1 treatment compared to untreated iHeps (FIG. 4C right).

[9] = test system: lfabp:GFP zebrafish embryos; conditions: clinical treatment for APAP toxicity; cited from earlier work

SMILES	survival of embryos [1]	staining of treated islands for albumin, CYP3A4 and AFP (iHeps [2]; immunofluorescent staining)	albumin staining (immunofluorescent) (iHeps [2]; treated iHeps)	hepatocyte phenotype of treated iHeps (iHeps [2]; treatment from day 21, 9 days)	liver size compared to DMSO-treated controls [3]	CYP3A4 activity increase (iHeps [4])	albumin secretion during primary screening [5]	differentiation of iPS-derived endothelial cells (nitric oxide) [6]	embryonic liver size / liver mass after APAP compared to controls [7]	ABCB11 (BSEP) expression level increase compared to untreated iHeps (iHeps [8])	GSTP1 expression compared to untreated iHeps (iHeps [8])	typical therapeutic window [9]
CC(=O)Nc1ccc(Cc2ccc(NC(C)=O)cc2)cc1 [FH1, N,N′-(methylenebis(4,1-phenylene))diacetamide]	71%	double stained strongly for albumin and CYP3A4, with very minimal presence of AFP	dramatic increases	more mature hepatocyte phenotypes	increased	16 times	doubled	induce differentiation	mitigated APAP-induced loss of liver mass	~4 fold	remained low	
CC(=O)N[C@@H](CS)C(=O)O [NAC]												~8 h
